Laboratory results as given in patent publication US5534242A, “Lidocaine-vasoconstrictor aerosol preparation” (priority 1995, dated 1996).
Structures can show the parent of a compound that is named as a salt.

Legend:
[1] = Solubilization of vasoconstricting agents in HFC propellants with lidocaine base; stability of the formulations; details: for Solubility in lidocaine base/HFC-134a solution: base form dissolved in ethanol (Formulations 11 and 12); for Behaviour of ethanol solution on addition of HFC-134a: ethanol solution also containing lidocaine free base
Experimental: The formulations of this invention can be manufactured in different ways. In one method, the lidocaine and vasoconstricting agent are dissolved in the organic solvent and place in the aluminum canister which is then capped and pressure filled with propellant. Where an organic solvent is not required, the lidocaine and vasoconstricting agent are dissolved in the propellant which is then pressure filled into the closed empty aluminum canister.
These formulations are presented for exemplary purposes only and by no means limit the scope and content of the invention defined by the claims.

[2] = cited from earlier work
[3] = tested on: nasal mucosa; details: cited from earlier work

## CC(N)C(O)c1ccccc1 (stereo not shown) [phenylpropanolamine]
[1]
  Solubility in lidocaine base/HFC-134a solution: readily soluble

## OCc1ccccc1 [Benzyl alcohol]
HFC-134a, no lidocaine
  Solubility of organic solvent in HFC-134a: not soluble

## COc1ccc(OC)c(C(O)C(C)N)c1 (stereo not shown) [methoxamine]
[1]
  Solubility in lidocaine base/HFC-134a solution: readily soluble

## COC(=O)[C@H]1[C@@H](OC(=O)c2ccccc2)C[C@@H]2CC[C@H]1N2C [Cocaine]
[2]; even small doses
  Dose that may cause systemic toxicity: approximately 30 mg
[2]; most patients
  Tolerability: well tolerated by most patients

## CCN(CC)CC(=O)Nc1c(C)cccc1C [Lidocaine base, 2-(diethylamino)-2',6'-acetoxylidide]
[3]
  Vasoconstriction of the mucosa: does not vasoconstrict the mucosa
[1]; HFC-134a
  Behaviour of ethanol solution on addition of HFC-134a: remained in solution

## CNC[C@H](O)c1cccc(O)c1 [phenylephrine hydrochloride, (R)-3-hydroxy-alpha-[(methylamino)methyl]benzene methanol hydrochloride]
[1]; HFC-134a
  Behaviour of ethanol solution on addition of HFC-134a: remained in solution
2.5% w/w in ethyl alcohol, HFC-134a, no lidocaine
  Behaviour of ethyl alcohol solution on addition of HFC-134a: precipitated out of solution
HFC-134a and HFC-227, no lidocaine
  Solubility in HFC propellants: insoluble
HFC-134a, versus with lidocaine base, almost 50% more
  Additional ethyl alcohol required to maintain a solution in HFC-134a in the absence of lidocaine base: ~50%
Benzyl alcohol + HFC-134a, no lidocaine
  Solubility of combination with benzyl alcohol in HFC-134a: not soluble
Benzyl alcohol, HFC-134a added, no lidocaine
  Solubility in benzyl alcohol: remained in solution
Diethylene glycol
  Solubility in diethylene glycol: soluble
Diethylene glycol + HFC-134a, no lidocaine
  Solubility of combination with diethylene glycol in HFC-134a: not soluble
Propylene glycol
  Solubility in propylene glycol: soluble
Propylene glycol + HFC-134a, no lidocaine
  Solubility of combination with propylene glycol in HFC-134a: not soluble

## CNC[C@H](O)c1cccc(O)c1 [Phenylephrine]
[3]
  Decongestion of the nasal mucosa: excellent decongestion

## CNC[C@H](O)c1cccc(O)c1 [phenylephrine base]
[1]; diethylene glycol, lidocaine base, HFC-134a
  Clear and stable solution with phenylephrine base substituted for the hydrochloride in formulation 9: Clear and stable solutions
